Test results published in patent US9868736B2, “Deubiquitinase inhibitors and methods for use of the same” (THE REGENTS OF THE UNIVERSITY OF MICHIGAN, priority 2013, dated 2018).
Entries after “also recorded” stand apart in the source; their conditions may differ. Like-named read-outs stand apart in the source and are kept apart here.

Tests used:
[1] = plasma level in mice after IV, PO or IP administration (LC/MS); format: in vivo, Balb/c mice; settings: for concentration at 0.5 h / concentration at 2 h / concentration at 4 h / concentration at 7 h / AUC(0-t) / half-life: Balb/c, mouse, plasma
Method: To determine whether G9 or 067 had anti-tumor activity in animals, we first assessed their properties in mice when introduced intravenously (IV) or by oral gavage (PO). G9 or 067 was administered once to two mice per group at the indicated dosage level and route (IV or PO) and plasma was collected at the time point indicated after administration. Compound concentration in the plasma was measured by high performance liquid chromatography coupled with mass spectroscopy detection (LC/MS).
Balb/c mice were treated with either 067 or G9 dissolved in dimethyl sulfoxide: polyethylene glycol 300 (1:1) and administered as indicated. The level of each compound in the plasma of each mouse at the time point indicated is shown in the line graph. The area under the curve (AUC) was calculated and tabulated below each line graph. […] The level of each compound in the plasma of each mouse at the time point indicated is shown Table 2. Several pharmacokinetic parameters were also calculated. […] The half-life of G9 was similar to 067 when administered by IP injection (30-60 min). Based on these assessments, G9 was further evaluated for anti-tumor activity in mice.

[2] = tested on: p53, pStat3, pERK, NOXA, PARP, Bid; assay: signalling and apoptosis markers in A375 cells; format: cell-based
Text: Similar results were obtained in A375R Usp5 KD cells treated with a MEK inhibitor.

Usp9x = Usp9x (Homo sapiens, UniProt Q93008); assay: DUB activity (HA-Ub vinyl-sulfone labelling) in lysates of treated intact cells; format: cell-based; parameters: endogenous in cells; host or cells: Z138 lymphoma, MM1.S/MM1.ST myeloma, primary PCL cells, A375 and vemurafenib-resistant A375 melanoma; settings: for inhibition at 5 µM: MM1.ST or PCL cells
Method: In brief, control and treated cells were lysed by sonication in DUB assay buffer [50 mM Tris-HCl (pH 7.5), 5 mM MgCl2, 250 mM sucrose, 1 mM PMSF, 1× Roche proteinase inhibitory cocktail] and 20 μg of protein from the supernatant fraction (after a 14,000×g spin) were incubated with 200 nM HA-Ub vinyl-sulfone (Boston Biochem) in a final volume of 20 μl. After 90 min at 37° C., reactions were stopped with the addition of 5×-sample buffer. DUB activity was detected by SDS-PAGE resolution of the protein followed by nitrocellulose membrane transfer and immunoblotting with anti-HA.
The time required for G9-mediated Usp9x inhibition in intact multiple myeloma (MM1.S) cells and primary tumor cells from a patient with plasma cell leukemia (PCL) was investigated. MM1.ST (FIG. 1, left) or PCL (FIG. 1, right) cells were treated with 5 μM of compound for the time indicated before Usp9x activity was assessed as described above.

Usp24 = Usp24 (Homo sapiens, UniProt Q9UPU5); assay: Usp24 inhibition
MM1.S tumor = MM1.S tumor growth in NSG mice; format: in vivo, NOD/SCID/gamma-2 knockout mice (NSG)
Method: Ten million MM1.S tumor cells were injected into the dorsal region of twenty female NOD/SCID/gamma-2 knockout mice (NSG) weighing ˜20 grams each. After 3 weeks tumors became visible and measurable with calipers. Mice were separated into four groups of 5 mice each and IP injected with G9 dissolved in 55% dimethyl sulfoxide, 25% polyethylene glycol 300, 20% phosphate-buffered saline at dose levels of 0, 2.5, 5 and 10 mg/kg mouse body weight. Animals were injected once per day for 14 days and tumor growth (measured with calipers) and animal weight were monitored over the treatment interval. The resulting changes in tumor growth for each group are shown and represented as the average+/−standard error of the mean for each group. The p-values were calculated using GraphPad InStat. P-values lower than 0.05 are considered significant. […] Animal weight was not affected by G9 injection in any of the mice. […] Twenty female NSG mice were inoculated subcutaneously with 10 million MM1.S cells in Matrigel and cell culture media (1:1) in a total volume of 0.1 mL. When tumors were measurable with calibers (3 weeks post tumor cell injection), mice were divided into 4 groups of five mice each and treated with the dose of G9 indicated. Tumor growth (left) and animal weight (right) were recorded at the interval noted. The results represent the average+/−SD of 5 animals per data point. P-values <0.05 are considered significant and were calculated using GraphPad InStat.
A second animal study was conducted in NSG mice with mice receiving higher dose levels of G9. Tumor inoculation and compound administration were similar to those utilized in the lower dose study. However, 3 mice per treatment group were used in this study and additional G9 doses were tested for safety and efficacy. […] NSG mice were inoculated with MM1.S tumors as described in FIG. 7. When tumors were measurable with calipers, mice were placed into 5 groups of 3 mice each and treated with G9 at 0, 5, 10, 15 and 20 mg/kg for 12 days with daily injection. Tumor size (left) and animal weight (right) were recorded over the treatment interval. […] The result of G9 treatment is also depicted as tumor volume over time for each treatment group (FIG. 4—top). Tumors extracted from each of the three mice in each treatment group following the last injection were photographed and shown in FIG. 4 (bottom). […] Control and treated mouse tumor sizes are shown on the left. Bars from left to right in each treatment group represent tumor size after 0, 4, 6, 8 and 11 days of treatment. Each bar represents the average+/−S.D. of measurements made in 3 mice per group. The significance of change in tumor volume between treated and control mice was calculated using GraphPad InStat. P-values<0.05 are considered significant. On the bottom, tumors were extracted from control and treated mice and photographed. Each row illustrates tumor from each of the three mice in the treatment group noted on the top of each row.

[3] = intravenous, 10 mg/kg, IV1 10 mg/kg
[4] = intravenous, 10 mg/kg, IV2 10 mg/kg
[5] = vemurafenib sensitive and resistant A375 cells

Chain of Usp9x (Q93008 whole entry): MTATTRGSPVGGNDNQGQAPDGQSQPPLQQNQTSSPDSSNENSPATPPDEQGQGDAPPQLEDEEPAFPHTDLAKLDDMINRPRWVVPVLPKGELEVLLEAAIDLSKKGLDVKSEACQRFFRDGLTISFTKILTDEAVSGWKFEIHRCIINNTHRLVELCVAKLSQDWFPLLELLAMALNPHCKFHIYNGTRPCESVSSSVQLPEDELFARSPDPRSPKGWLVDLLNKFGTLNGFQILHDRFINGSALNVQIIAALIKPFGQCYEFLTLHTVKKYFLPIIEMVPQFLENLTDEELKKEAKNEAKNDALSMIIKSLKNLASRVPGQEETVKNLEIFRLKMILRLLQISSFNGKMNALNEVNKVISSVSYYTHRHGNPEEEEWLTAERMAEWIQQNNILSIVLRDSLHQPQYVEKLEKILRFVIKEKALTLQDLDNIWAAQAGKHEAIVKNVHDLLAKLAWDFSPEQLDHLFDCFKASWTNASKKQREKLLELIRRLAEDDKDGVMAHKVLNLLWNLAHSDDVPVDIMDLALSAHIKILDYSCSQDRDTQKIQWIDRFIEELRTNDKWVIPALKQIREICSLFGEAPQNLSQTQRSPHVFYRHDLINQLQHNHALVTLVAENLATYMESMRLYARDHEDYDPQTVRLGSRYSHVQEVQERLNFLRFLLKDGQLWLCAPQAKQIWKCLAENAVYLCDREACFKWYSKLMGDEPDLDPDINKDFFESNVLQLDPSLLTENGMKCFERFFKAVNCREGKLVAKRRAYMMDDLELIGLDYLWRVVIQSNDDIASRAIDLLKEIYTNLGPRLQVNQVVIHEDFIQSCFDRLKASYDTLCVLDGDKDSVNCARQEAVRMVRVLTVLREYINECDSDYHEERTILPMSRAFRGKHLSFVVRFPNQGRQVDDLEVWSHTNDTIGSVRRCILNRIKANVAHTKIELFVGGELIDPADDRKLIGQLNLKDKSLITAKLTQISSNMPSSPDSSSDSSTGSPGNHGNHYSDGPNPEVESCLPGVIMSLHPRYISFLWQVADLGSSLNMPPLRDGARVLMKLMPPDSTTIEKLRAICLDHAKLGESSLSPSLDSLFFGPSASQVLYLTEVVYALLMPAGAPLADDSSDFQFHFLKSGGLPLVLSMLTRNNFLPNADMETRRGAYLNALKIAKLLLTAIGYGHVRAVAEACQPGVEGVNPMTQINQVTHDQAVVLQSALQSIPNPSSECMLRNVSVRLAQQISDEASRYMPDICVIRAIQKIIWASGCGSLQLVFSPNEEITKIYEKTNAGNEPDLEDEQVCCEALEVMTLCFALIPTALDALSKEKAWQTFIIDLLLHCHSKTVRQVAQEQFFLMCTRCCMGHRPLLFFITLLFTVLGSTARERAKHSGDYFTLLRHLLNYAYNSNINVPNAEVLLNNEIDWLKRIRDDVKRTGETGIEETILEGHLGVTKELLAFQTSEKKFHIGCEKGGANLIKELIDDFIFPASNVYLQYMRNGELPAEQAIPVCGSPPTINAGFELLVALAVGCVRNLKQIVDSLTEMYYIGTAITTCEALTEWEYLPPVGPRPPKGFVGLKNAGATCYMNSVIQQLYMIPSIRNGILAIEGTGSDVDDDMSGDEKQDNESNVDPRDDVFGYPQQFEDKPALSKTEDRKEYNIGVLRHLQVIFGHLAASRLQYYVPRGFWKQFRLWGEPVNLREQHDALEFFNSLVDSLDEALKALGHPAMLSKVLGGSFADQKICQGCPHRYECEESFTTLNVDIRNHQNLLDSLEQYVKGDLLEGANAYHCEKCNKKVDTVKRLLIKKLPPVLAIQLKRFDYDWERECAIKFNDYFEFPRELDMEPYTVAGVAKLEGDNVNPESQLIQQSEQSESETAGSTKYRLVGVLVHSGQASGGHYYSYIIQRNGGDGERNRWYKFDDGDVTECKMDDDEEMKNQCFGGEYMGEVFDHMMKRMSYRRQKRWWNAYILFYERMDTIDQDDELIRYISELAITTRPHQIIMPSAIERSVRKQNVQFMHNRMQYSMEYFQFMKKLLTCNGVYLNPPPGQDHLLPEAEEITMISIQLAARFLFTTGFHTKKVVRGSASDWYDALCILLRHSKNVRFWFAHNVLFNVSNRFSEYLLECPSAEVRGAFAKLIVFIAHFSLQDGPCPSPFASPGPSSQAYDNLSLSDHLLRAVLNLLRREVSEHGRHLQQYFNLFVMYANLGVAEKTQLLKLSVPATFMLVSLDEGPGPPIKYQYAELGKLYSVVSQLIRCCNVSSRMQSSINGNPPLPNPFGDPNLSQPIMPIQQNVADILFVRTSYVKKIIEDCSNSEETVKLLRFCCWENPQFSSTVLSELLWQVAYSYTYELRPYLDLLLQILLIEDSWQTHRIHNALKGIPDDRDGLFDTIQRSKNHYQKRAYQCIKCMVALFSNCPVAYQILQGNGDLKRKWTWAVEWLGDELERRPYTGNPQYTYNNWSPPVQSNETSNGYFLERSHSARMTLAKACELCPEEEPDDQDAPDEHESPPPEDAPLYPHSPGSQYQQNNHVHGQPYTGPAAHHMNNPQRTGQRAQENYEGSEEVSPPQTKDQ
Chain of Usp24 (Q9UPU5 whole entry): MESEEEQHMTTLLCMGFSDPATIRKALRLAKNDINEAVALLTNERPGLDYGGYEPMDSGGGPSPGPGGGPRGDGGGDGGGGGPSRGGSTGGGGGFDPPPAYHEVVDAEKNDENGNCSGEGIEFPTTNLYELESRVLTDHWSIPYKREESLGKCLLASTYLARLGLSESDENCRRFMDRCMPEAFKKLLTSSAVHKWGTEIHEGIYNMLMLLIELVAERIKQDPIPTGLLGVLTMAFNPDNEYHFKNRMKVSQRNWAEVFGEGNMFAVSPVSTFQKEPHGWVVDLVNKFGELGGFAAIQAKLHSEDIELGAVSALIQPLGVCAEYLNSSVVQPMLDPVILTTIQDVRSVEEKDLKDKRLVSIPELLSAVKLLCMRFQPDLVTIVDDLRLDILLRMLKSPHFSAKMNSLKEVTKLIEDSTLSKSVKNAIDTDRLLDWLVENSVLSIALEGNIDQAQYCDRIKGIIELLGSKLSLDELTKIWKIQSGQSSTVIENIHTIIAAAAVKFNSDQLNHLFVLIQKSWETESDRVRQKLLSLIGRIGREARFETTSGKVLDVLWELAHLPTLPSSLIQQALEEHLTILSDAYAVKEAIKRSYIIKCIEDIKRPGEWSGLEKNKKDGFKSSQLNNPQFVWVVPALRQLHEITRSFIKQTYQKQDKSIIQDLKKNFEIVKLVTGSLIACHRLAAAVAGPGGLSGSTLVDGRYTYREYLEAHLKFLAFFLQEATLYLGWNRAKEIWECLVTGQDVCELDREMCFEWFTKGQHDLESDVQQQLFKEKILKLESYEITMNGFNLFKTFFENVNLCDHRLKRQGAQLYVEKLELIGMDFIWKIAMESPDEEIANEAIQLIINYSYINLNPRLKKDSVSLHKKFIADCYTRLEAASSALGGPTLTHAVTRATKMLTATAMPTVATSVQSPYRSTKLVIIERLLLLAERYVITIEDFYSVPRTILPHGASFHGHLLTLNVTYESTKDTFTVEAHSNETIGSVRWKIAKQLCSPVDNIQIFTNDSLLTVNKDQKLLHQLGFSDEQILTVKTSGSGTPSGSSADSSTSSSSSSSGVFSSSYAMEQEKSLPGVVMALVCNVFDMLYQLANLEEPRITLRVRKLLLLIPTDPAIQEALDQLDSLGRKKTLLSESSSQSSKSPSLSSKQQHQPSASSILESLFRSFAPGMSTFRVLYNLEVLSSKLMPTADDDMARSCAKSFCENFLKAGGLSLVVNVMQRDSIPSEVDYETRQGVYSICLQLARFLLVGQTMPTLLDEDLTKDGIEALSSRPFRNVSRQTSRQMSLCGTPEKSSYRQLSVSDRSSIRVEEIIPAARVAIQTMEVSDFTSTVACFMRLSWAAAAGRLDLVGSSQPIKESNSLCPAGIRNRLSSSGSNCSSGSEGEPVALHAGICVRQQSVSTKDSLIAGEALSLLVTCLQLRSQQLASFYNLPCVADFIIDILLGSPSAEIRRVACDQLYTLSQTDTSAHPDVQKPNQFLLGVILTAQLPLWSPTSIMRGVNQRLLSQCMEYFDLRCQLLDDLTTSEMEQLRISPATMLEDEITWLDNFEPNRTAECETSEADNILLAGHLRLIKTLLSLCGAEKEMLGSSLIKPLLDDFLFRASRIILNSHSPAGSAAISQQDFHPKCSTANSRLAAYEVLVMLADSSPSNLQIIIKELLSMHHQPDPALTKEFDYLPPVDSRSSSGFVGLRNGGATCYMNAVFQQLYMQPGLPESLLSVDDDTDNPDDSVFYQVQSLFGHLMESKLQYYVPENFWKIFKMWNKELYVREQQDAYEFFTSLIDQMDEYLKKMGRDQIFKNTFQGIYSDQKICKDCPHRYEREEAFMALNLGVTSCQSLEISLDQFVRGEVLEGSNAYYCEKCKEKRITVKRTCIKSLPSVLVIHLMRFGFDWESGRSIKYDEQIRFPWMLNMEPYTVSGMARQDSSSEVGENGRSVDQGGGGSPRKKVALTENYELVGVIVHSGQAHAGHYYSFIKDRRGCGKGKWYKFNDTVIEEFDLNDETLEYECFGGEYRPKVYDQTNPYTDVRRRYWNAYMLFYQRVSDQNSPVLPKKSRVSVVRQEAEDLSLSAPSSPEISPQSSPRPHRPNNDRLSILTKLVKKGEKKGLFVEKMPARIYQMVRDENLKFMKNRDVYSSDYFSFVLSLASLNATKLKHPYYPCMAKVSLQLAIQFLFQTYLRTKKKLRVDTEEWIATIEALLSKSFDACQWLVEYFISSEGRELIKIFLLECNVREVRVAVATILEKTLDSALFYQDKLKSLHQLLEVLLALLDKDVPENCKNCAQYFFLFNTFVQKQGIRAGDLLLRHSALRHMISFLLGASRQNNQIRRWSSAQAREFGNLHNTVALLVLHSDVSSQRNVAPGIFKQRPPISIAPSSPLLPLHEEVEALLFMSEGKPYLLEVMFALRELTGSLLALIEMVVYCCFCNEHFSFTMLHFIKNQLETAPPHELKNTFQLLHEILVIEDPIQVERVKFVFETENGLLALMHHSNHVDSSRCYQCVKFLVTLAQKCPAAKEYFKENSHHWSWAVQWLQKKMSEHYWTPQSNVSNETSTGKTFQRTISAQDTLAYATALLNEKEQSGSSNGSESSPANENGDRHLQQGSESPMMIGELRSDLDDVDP

Structure (SMILES): CCCC(NC(=O)/C(C#N)=C/c1nc(Cl)ccc1Cl)c1ccc(OCCN2CCOCC2)cc1 (centres unmarked) [Compound G9, (E)-2-Cyano-3-(3,6-dichloropyridin-2-yl)-N-(1-(4-(2-morpholinoethoxy)phenyl)butyl)acrylamide]
- concentration at 0.5 h [1, 3]: 1880 ng/mL
- concentration at 2 h [1, 3]: 395 ng/mL
- concentration at 4 h [1, 3]: 126 ng/mL
- concentration at 7 h [1, 3]: 38.6 ng/mL
- concentration at 0.5 h [1, 4]: 1220 ng/mL
- concentration at 2 h [1, 4]: 520 ng/mL
- concentration at 4 h [1, 4]: 289 ng/mL
- concentration at 7 h [1, 4]: 208 ng/mL
- AUC(0-t) ([1]; iv, 10 mg/kg, IV1 10 mg/kg): 3730 ng·h/mL
- AUC(0-t) ([1]; iv, 10 mg/kg, IV2 10 mg/kg): 3570 ng·h/mL
- concentration at 0.5 h ([1]; oral, 30 mg/kg, PO1 30 mg/kg): 60.8 ng/mL
- concentration at 2 h ([1]; oral, 30 mg/kg, PO1 30 mg/kg): 35.8 ng/mL
- concentration at 4 h ([1]; oral, 30 mg/kg, PO1 30 mg/kg): 44.5 ng/mL
- concentration at 7 h ([1]; oral, 30 mg/kg, PO1 30 mg/kg): 37.6 ng/mL
- concentration at 0.5 h ([1]; oral, 30 mg/kg, PO2 30 mg/kg): 78.7 ng/mL
- concentration at 2 h ([1]; oral, 30 mg/kg, PO2 30 mg/kg): 59 ng/mL
- concentration at 4 h ([1]; oral, 30 mg/kg, PO2 30 mg/kg): 57.1 ng/mL
- concentration at 7 h ([1]; oral, 30 mg/kg, PO2 30 mg/kg): 16.1 ng/mL
- AUC(0-t) ([1]; po, 30 mg/kg, PO1 30 mg/kg): 291 ng·h/mL
- AUC(0-t) ([1]; po, 30 mg/kg, PO2 30 mg/kg): 349 ng·h/mL
- half-life ([1]; mice, IP injection): 30 to 60 min
- half-life ([1]; mice, IV or PO study of Table 2): 90 to 120 min
- bio-availability following IV administration ([1]; mice, IV): bio-available following IV administration
- peak plasma levels, G9 compared with 067 ([1]; mice, IV): higher peak levels
- oral bio-availability ([1]; mice, PO): poor oral bio-availability
- pERK, pStat3 and NOXA levels ([2]; A375R cells): reduced pERK, pStat3 and elevated NOXA levels
- PARP and Bid cleavage ([2]; A375R cells, combined with vemurafenib or 5FU): induced PARP and Bid cleavage
- p53 levels [2, 5]: increased p53 levels
- pStat3 inhibitory activity [2, 5]: retained pStat3 inhibitory activity
- Usp9x activity (Usp9x; A375 melanoma cells and vemurafenib-resistant A375 variant): inhibition of Usp9x activity in either cell type; also recorded: reduced Usp5 (and Usp9x) activity in both cell types
- inhibition at 5 µM (Usp9x; 5 minutes, read-out: Usp9x activity inhibition): > 80%
- inhibition at 5 µM (Usp9x; 60 minute, read-out: Usp9x inhibition): 100%
- Usp9x activity in intact cells (Usp9x; Z138 lymphoma cells, 1.25, 2.5 and 5 μM, 4 hours): able to inhibit Usp9x activity in intact cells
- Usp9x inhibition (Usp9x; myeloma (MM1.S) cells, various concentrations, FIG. 10): inhibits Usp9x and Usp5
- Usp24 inhibition (Usp24): inhibited the DUB Usp24
- animal weight (MM1.S tumor; IP once per day for 14 days, 2.5, 5 and 10 mg/kg): not affected
- MM1.S tumor growth (MM1.S tumor; IP once per day for 14 days, 2.5, 5 and 10 mg/kg (all doses)): reduced MM1.S tumor growth
- MM1.S tumor growth compared to controls (MM1.S tumor; IP once per day for 14 days, 5 and 10 mg/kg): significant reduction in MM1.S tumor growth
- MM1.S tumor growth (MM1.S tumor; daily injection for 12 days, 5, 10, 15 and 20 mg/kg (all doses)): suppressed MM1.S tumor growth
- animal weight (MM1.S tumor; daily injection for 12 days, 10-20 mg/kg): some weight loss
- MM1.S tumor size (MM1.S tumor; daily injection for 12 days, 15 and 20 mg/kg): tumor regression
